Results as given in ChEMBL document CHEMBL4665657, “2-Phenyl-8-(1-phenylallyl)-chromenone compounds have a pan-PPAR modulator pharmacophore” (Bioorg Med Chem, 2019).
Calls of active or inactive are those of the source. The rule behind the calls is not given here.

Tests used:
BMMSC [1] = assay: Induction of adipogenesis in human BMMSC cells assessed as increase in ANGPTL4 mRNA at 1 uM incubated for 3 days by qRT-PCR analysis; format: functional, cell-based; conditions: time 3.0 day
BMMSC [2] = assay: Induction of adipogenesis in human BMMSC cells assessed as increase in ACACB mRNA at 1 uM incubated for 3 days by qRT-PCR analysis; format: functional, cell-based; conditions: time 3.0 day
BMMSC [3] = assay: Induction of adipogenesis in human BMMSC cells assessed as increase in HMGCR mRNA at 1 uM incubated for 3 days by qRT-PCR analysis; format: functional, cell-based; conditions: time 3.0 day
BMMSC [4] = assay: Induction of adipogenesis in human BMMSC cells assessed as increase in ACOX1 mRNA at 1 uM incubated for 3 days by qRT-PCR analysis; format: functional, cell-based; conditions: time 3.0 day
BMMSC [5] = assay: Induction of adipogenesis in human BMMSC cells assessed as increase in HMGCS2 mRNA at 1 uM incubated for 3 days by qRT-PCR analysis; format: functional, cell-based; conditions: time 3.0 day
BMMSC [6] = assay: Induction of adipogenesis in human BMMSC cells assessed as increase in adiponectin secretion at 10 uM incubated for 5 days by ELISA; format: functional, cell-based; conditions: time 5.0 day
PC-3 = assay: Cytotoxicity against human PC-3 cells assessed as reduction in cell viability incubated for 72 hrs by WST-8 assay; format: functional, cell-based; conditions: PC-3, 72 h
BMMSC [7] = assay: Induction of adipogenesis in human BMMSC cells assessed as lipid droplet formation at 10 uM incubated for 5 days by oil red O staining based inverted microscopy analysis; format: functional, cell-based; conditions: time 5.0 day
[8] = biological target: T1, Peroxisome proliferator-activated receptor gamma (Homo sapiens, UniProt P37231); assay: Binding affinity to PPARgamma (unknown origin) by TR-FRET assay
T1 sequence (P37231 whole entry): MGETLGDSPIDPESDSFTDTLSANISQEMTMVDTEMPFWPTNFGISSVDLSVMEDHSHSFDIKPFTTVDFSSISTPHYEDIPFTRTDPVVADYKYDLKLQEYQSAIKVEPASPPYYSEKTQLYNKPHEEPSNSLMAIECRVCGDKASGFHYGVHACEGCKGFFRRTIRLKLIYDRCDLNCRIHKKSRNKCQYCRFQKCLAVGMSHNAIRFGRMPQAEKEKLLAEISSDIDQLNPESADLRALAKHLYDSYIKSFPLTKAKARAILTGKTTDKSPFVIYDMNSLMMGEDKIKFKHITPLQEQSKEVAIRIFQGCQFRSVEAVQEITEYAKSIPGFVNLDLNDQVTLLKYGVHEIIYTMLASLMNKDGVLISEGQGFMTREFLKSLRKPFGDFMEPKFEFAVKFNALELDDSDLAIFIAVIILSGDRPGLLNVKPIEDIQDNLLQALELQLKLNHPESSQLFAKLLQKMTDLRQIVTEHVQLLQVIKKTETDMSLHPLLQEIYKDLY

[9] = biological target: T2, Peroxisome proliferator-activated receptor alpha (Homo sapiens, UniProt Q07869); assay: Binding affinity to PPARalpha (unknown origin) by TR-FRET assay
T2 sequence (Q07869 whole entry): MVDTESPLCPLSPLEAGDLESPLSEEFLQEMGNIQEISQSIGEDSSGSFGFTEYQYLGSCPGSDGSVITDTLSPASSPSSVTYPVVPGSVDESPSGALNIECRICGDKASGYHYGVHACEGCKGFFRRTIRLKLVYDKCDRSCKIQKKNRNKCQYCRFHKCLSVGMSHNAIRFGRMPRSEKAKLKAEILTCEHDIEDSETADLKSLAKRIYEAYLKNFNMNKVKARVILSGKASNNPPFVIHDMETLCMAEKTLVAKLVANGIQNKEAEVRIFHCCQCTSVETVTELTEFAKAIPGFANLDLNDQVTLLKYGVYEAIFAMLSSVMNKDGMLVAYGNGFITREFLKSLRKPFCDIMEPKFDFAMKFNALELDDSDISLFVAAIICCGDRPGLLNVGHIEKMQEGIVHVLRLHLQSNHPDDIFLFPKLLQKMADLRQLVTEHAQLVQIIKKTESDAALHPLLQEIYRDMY

A549 = assay: Cytotoxicity against human A549 cells assessed as reduction in cell viability incubated for 72 hrs by WST-8 assay; format: functional, cell-based; conditions: A549, 72 h
[10] = Cytotoxicity against human BM-MSC cells assessed as cell viability at 100 uM incubated for 72 hrs by WST-8 assay; format: cell-based, BMMSC; conditions: read-out: Activity
BMMSC [11] = assay: Induction of adipogenesis in human BMMSC cells assessed as increase in adiponectin secretion incubated for 5 days by ELISA; format: functional, cell-based; conditions: time 5.0 day
[12] = biological target: T3, Peroxisome proliferator-activated receptor delta (Homo sapiens, UniProt Q03181); assay: Binding affinity to PPARdelta (unknown origin) by TR-FRET assay
T3 sequence (Q03181 whole entry): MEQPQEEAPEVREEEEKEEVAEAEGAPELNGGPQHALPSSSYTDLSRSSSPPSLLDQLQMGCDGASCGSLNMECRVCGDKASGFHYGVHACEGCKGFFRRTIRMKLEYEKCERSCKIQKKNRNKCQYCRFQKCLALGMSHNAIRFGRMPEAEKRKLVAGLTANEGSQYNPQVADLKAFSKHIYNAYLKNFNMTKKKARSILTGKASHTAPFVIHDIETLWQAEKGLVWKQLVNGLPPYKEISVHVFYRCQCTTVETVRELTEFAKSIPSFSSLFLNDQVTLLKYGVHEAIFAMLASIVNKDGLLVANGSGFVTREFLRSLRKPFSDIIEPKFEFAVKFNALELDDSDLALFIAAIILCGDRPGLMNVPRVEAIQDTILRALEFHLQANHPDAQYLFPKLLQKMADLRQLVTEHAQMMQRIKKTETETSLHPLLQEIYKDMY

| Ki [8] | Ki [9] | Ki [12] | Structure (SMILES) | Activity (BMMSC [1]) | Activity (BMMSC [2]) | Activity (BMMSC [3]) | Activity (BMMSC [4]) | Activity (BMMSC [5]) | Activity (BMMSC [6]) | IC50 (PC-3) | Activity (BMMSC [7]) | IC50 (A549) | viability at 72 h, 100 µM [10] | Activity (BMMSC [11]) |
| --- | --- | --- | --- | --- | --- | --- | --- | --- | --- | --- | --- | --- | --- | --- |
| – | – | – | CCc1ccc(CCOc2ccc(CC3SC(=O)NC3=O)cc2)nc1 (stereo not given) | Active | Active | Active | inactive | inactive | – | – | – | – | – | – |
| – | – | – | Cc1cc(SCc2sc(-c3ccc(C(F)(F)F)cc3)nc2C)ccc1OCC(=O)O | Active | Active | Active | inactive | inactive | – | – | – | – | – | – |
| – | – | – | C=CC(c1ccc(OC)c(OC)c1)c1c(O)cc(O)c2c(=O)cc(-c3ccccc3)oc12 (stereo not given) | – | – | – | – | – | Active | – | – | – | – | – |
| 2530 nM | 2410 nM | 2480 nM | C=CC(c1ccc(O)c(OC)c1)c1c(O)cc(O)c2c(=O)cc(-c3ccccc3)oc12 (stereo not given) | – | – | – | – | – | Active | 30600 nM | Active | 55500 nM | 57% | Dose-dependent effect |
